From US20260130933A1, “PHARMACEUTICAL COMPOSITION FOR PREVENTION OR TREATMENT OF NEPHROPATHY AND/OR DIABETES MELLITUS, COMPRISING ENAVOGLIFLOZIN” (DAEWOONG PHARMACEUTICAL CO., LTD., priority 2022, published 2026)

Test: Example 2: phase 3 trial, enavogliflozin 0.3 mg vs dapagliflozin 10 mg once a day for 24 weeks added to metformin in patients with type 2 diabetes (same efficacy, exploratory and safety endpoints)
Type: in vivo, human
Description: Subjects who met the inclusion/exclusion criteria were administered a placebo of the clinical trial drug under single-blind (subject blinding) conditions during a 2-week run-in period while continuing to receive metformin. […] The randomized subjects were administered two tablets of the clinical trial drug for each administration group once a day, and then visited the institution at weeks 6, 12, 18, and 24 during the 24-week administration period to conduct efficacy and safety evaluations.
• 1. Change in HbA1c at week 24 after administration of clinical trial drug compared to Visit 2 (randomization)
• 1. Change in HbA1c at each time point of weeks 6, 12, and 18 after administration of clinical trial drug compared to Visit 2 (randomization) • 2. Change in FPG at each time point of weeks 6, 12, 18, and 24 after administration of clinical trial drug compared to Visit 2 (randomization) • 3. Proportion of subjects achieving HbA1c<7% at each time point of weeks 6, 12, 18, and 24 after administration of clinical trial drug • 4. Proportion of subjects achieving HbA1c<6.5% at each time point of weeks 6, 12, 18, and 24 after administration of clinical trial drug • 5. Proportion of subjects achieving therapeutic response (HbA1c change (HbA1c at Visit 2-HbA1c at each evaluation time point)>0.5% or HbA1c<7% at each evaluation time point compared to Visit 2 (randomization)) at each time point of weeks 6, 12, 18 and 24 after administration of clinical trial drug
• 1. Change in fasting c-peptide at each time point of weeks 6, 12, 18, and 24 after administration of clinical trial drug compared to Visit 2 (randomization) • 2. Change in body weight at each time point of weeks 6, 12, 18, and 24 after administration of clinical trial drug compared to Visit 2 (randomization) • 3. Change in fasting lipid concentration (total cholesterol, LDL-C, HDL-C, and triglycerides) at each time point of weeks 6, 12, 18, and 24 after administration of clinical trial drug compared to Visit 2 (randomization) • 4. Changes in systolic or diastolic blood pressure at each time point of weeks 6, 12, 18, and 24 after administration of clinical trial drug compared to Visit 2 (randomization) • 5. Changes in β-cell function and insulin resistance measured by HOMA-β and HOMA-IR at each time point of weeks 6, 12, 18, and 24 after administration of clinical trial drug compared to Visit 2 (randomization) • 6. Changes in renal function-related indicators (UACR, UGCR) measured by UACR at each time point of weeks 6, 12, 18, and 24 after administration of clinical trial drug compared to Visit 2 (randomization) • 7. Changes in obesity-related indicators (adiponectin, leptin) at each time point of weeks 6, 12, 18, and 24 after administration of clinical trial drug compared to Visit 2 (randomization)

[1] = Week 6, PPS, enavogliflozin minus dapagliflozin
[2] = Week 6, mPPS1, enavogliflozin minus dapagliflozin
[3] = Week 6, mPPS2, enavogliflozin minus dapagliflozin
[4] = Week 12, PPS, enavogliflozin minus dapagliflozin

Q: Which “UGCR change from baseline, LS mean difference” value [1] does the source give for `OC[C@H]1O[C@@H](c2cc(Cc3ccc(C4CC4)cc3)c(Cl)c3c2CCO3)[C@H](O)[C@@H](O)[C@@H]1O` [Enavogliflozin, (2S,3R,4R,5S,6R)-2-(7-chloro-6 (4-cyclopropylbenzyl)-2,3-dihydrobenzofuran-4-yl)-6-(hydroxymethyl)tetrahydro-2H-pyran-3,4,5-triol] here?
A: Its value is 15.62 mg/mg.

Q: And the “leptin change from baseline, LS mean difference” value [1]?
A: The value was -0.81 ng/mL.

Q: And the “HDL-C change from baseline, ANCOVA LS mean (SE)” value (Week 6, mPPS1)?
A: Its value is 1.11(0.58) mg/dL.

Q: What about the “HDL-C change from baseline, Mean (SD)” value (Week 6, mPPS1) of the same compound?
A: The value was 1.18(5.14) mg/dL.

Q: And the “HDL-C change from baseline, Median” value (Week 6, mPPS1)?
A: Its value is 1.00 mg/dL.

Q: And the “HDL-C, Mean (SD)” value (Week 6, mPPS1)?
A: Its value is 52.12(11.10) mg/dL.

Q: And the “HDL-C, Median” value (Week 6, mPPS1)?
A: Its value is 51.00 mg/dL.

Q: What about the “LDL-C change from baseline, ANCOVA LS mean (SE)” value (Week 6, mPPS1) of the same compound?
A: Its value is −0.09(1.89) mg/dL.

Q: What about the “LDL-C change from baseline, Mean (SD)” value (Week 6, mPPS1) of the same compound?
A: Its value is −0.67(15.12) mg/dL.

Q: What about the “LDL-C change from baseline, Median” value (Week 6, mPPS1) of the same compound?
A: The value was -2.00 mg/dL.

Q: And the “LDL-C, Mean (SD)” value (Week 6, mPPS1)?
A: Its value is 85.85(31.51) mg/dL.

Q: What about the “LDL-C, Median” value (Week 6, mPPS1) of the same compound?
A: Its value is 79.00 mg/dL.

Q: What about the “Triglycerides change from baseline, ANCOVA LS mean (SE)” value (Week 6, mPPS1) of the same compound?
A: Its value is 8.62(6.88) mg/dL.

Q: And the “Triglycerides change from baseline, Mean (SD)” value (Week 6, mPPS1)?
A: The value was 9.49(73.63) mg/dL.

Q: What about the “Triglycerides change from baseline, Median” value (Week 6, mPPS1) of the same compound?
A: Its value is -3.00 mg/dL.

Q: What about the “Triglycerides, Mean (SD)” value (Week 6, mPPS1) of the same compound?
A: Its value is 131.59(114.93) mg/dL.

Q: And the “Triglycerides, Median” value (Week 6, mPPS1)?
A: Its value is 97.00 mg/dL.

Q: What about the “HDL-C change from baseline, LS mean difference” value [2] of the same compound?
A: The value was -0.49 mg/dL.

Q: What about the “LDL-C change from baseline, LS mean difference” value [2] of the same compound?
A: The value was -4.29 mg/dL.

Q: And the “triglycerides change from baseline, LS mean difference” value [2]?
A: Its value is 18.76 mg/dL.

Q: And the “Diastolic blood pressure change from baseline, ANCOVA LS mean (SE)” value (Week 6, mPPS2)?
A: Its value is −2.75 mmHg.

Q: What about the “Diastolic blood pressure change from baseline, Mean (SD)” value (Week 6, mPPS2) of the same compound?
A: The value was −2.80 mmHg.

Q: What about the “Diastolic blood pressure change from baseline, Median” value (Week 6, mPPS2) of the same compound?
A: Its value is −3.00 mmHg.

Q: And the “Diastolic blood pressure, Mean (SD)” value (Week 6, mPPS2)?
A: Its value is 74.25 mmHg.

Q: And the “Diastolic blood pressure, Median” value (Week 6, mPPS2)?
A: Its value is 74.00 mmHg.

Q: And the “Systolic blood pressure change from baseline, ANCOVA LS mean (SE)” value (Week 6, mPPS2)?
A: The value was −3.29(1.02) mmHg.

Q: And the “Systolic blood pressure change from baseline, Mean (SD)” value (Week 6, mPPS2)?
A: Its value is −3.28(9.34) mmHg.

Q: And the “Systolic blood pressure change from baseline, Median” value (Week 6, mPPS2)?
A: The value was −4.00 mmHg.

Q: What about the “Systolic blood pressure, Mean (SD)” value (Week 6, mPPS2) of the same compound?
A: The value was 126.44(14.45) mmHg.

Q: What about the “Systolic blood pressure, Median” value (Week 6, mPPS2) of the same compound?
A: The value was 128.00 mmHg.

Q: And the “diastolic blood pressure change from baseline, LS mean difference” value [3]?
A: The value was −1.28 mmHg.

Q: What about the “systolic blood pressure change from baseline, LS mean difference” value [3] of the same compound?
A: Its value is −0.58 mmHg.

Q: What about the Adiponectin change from baseline, ANCOVA LS mean (SE) (Week 12, PPS) of the same compound?
A: Its Adiponectin change from baseline, ANCOVA LS mean (SE) is 0.84 µg/mL.

Q: What about the Adiponectin change from baseline, Mean (SD) (Week 12, PPS) of the same compound?
A: The Adiponectin change from baseline, Mean (SD) was 0.9 µg/mL.

Q: What about the Adiponectin change from baseline, Median (Week 12, PPS) of the same compound?
A: Its Adiponectin change from baseline, Median is 0.68 µg/mL.

Q: What about the Adiponectin, Mean (SD) (Week 12, PPS) of the same compound?
A: Its Adiponectin, Mean (SD) is 7.87 µg/mL.

Q: And the Adiponectin, Median (Week 12, PPS)?
A: Its Adiponectin, Median is 6.91 µg/mL.

Q: What about the “HOMA-IR change from baseline, ANCOVA LS mean (SE)” value (Week 12, PPS) of the same compound?
A: Its value is −1.58.

Q: What about the “HOMA-IR change from baseline, Mean (SD)” value (Week 12, PPS) of the same compound?
A: Its value is −1.36.

Q: And the “HOMA-IR change from baseline, Median” value (Week 12, PPS)?
A: Its value is −0.99.

Q: And the “HOMA-IR, Mean (SD)” value (Week 12, PPS)?
A: Its value is 2.10.

Q: What about the “HOMA-IR, Median” value (Week 12, PPS) of the same compound?
A: The value was 1.61.

Q: What about the “HOMA-β change from baseline, ANCOVA LS mean (SE)” value (Week 12, PPS) of the same compound?
A: The value was 5.57.

Q: What about the “HOMA-β change from baseline, Mean (SD)” value (Week 12, PPS) of the same compound?
A: Its value is 5.59.

Q: And the “HOMA-β change from baseline, Median” value (Week 12, PPS)?
A: Its value is 5.10.

Q: What about the “HOMA-β, Mean (SD)” value (Week 12, PPS) of the same compound?
A: Its value is 51.45.

Q: And the “HOMA-β, Median” value (Week 12, PPS)?
A: The value was 41.60.

Q: What about the “Leptin change from baseline, ANCOVA LS mean (SE)” value (Week 12, PPS) of the same compound?
A: The value was -2.64 ng/mL.

Q: What about the “Leptin change from baseline, Mean (SD)” value (Week 12, PPS) of the same compound?
A: Its value is -2.73 ng/mL.

Q: What about the “Leptin change from baseline, Median” value (Week 12, PPS) of the same compound?
A: Its value is -1.45 ng/mL.

Q: And the “Leptin, Mean (SD)” value (Week 12, PPS)?
A: The value was 9.56 ng/mL.

Q: And the “Leptin, Median” value (Week 12, PPS)?
A: Its value is 6.60 ng/mL.

Q: What about the “UACR change from baseline, ANCOVA LS mean (SE)” value (Week 12, PPS) of the same compound?
A: Its value is -21.65 g/kg.

Q: And the “UACR change from baseline, Mean (SD)” value (Week 12, PPS)?
A: Its value is -18550 mg/kg.

Q: And the “UACR change from baseline, Median” value (Week 12, PPS)?
A: The value was -1.40 g/kg.

Q: And the “UACR, Mean (SD)” value (Week 12, PPS)?
A: Its value is 19800 mg/kg.

Q: And the “UACR, Median” value (Week 12, PPS)?
A: The value was 11.05 g/kg.

Q: What about the “UGCR change from baseline, ANCOVA LS mean (SE)” value (Week 12, PPS) of the same compound?
A: Its value is 64.70 mg/mg.

Q: What about the “UGCR change from baseline, Mean (SD)” value (Week 12, PPS) of the same compound?
A: Its value is 63.04 mg/mg.

Q: And the “UGCR change from baseline, Median” value (Week 12, PPS)?
A: Its value is 58.91 mg/mg.

Q: And the “UGCR, Mean (SD)” value (Week 12, PPS)?
A: The value was 64.53 mg/mg.

Q: And the “UGCR, Median” value (Week 12, PPS)?
A: The value was 62.30 mg/mg.

Q: What about the “HOMA-IR change from baseline, LS mean difference” value [4] of the same compound?
A: The value was 0.02.

Q: What about the “HOMA-β change from baseline, LS mean difference” value [4] of the same compound?
A: The value was −3.17.

Q: And the “UACR change from baseline, LS mean difference” value [4]?
A: The value was -18.27 g/kg.

Q: And the “UGCR change from baseline, LS mean difference” value [4]?
A: The value was 19.57 mg/mg.

Q: And the “leptin change from baseline, LS mean difference” value [4]?
A: Its value is 0.07 ng/mL.

Q: What about the “HDL-C change from baseline, ANCOVA LS mean (SE)” value (Week 12, mPPS1) of the same compound?
A: The value was 2.31(0.60) mg/dL.

Q: And the “HDL-C change from baseline, Mean (SD)” value (Week 12, mPPS1)?
A: The value was 2.08(5.60) mg/dL.

Q: And the “HDL-C change from baseline, Median” value (Week 12, mPPS1)?
A: Its value is 2.00 mg/dL.
